Test results: ChEMBL document CHEMBL1154198, “Chemical genetics of Plasmodium falciparum” (Nature, 2010)

Columns and labels:
Plasmodium falciparum [1] = test: ST_JUDE: Plasmodium falciparum 3D7 EC50 (uM) as measured by SYBR green dye; assay type: functional, organism-based
Plasmodium falciparum [2] = test: ST_JUDE: Plasmodium falciparum K1 EC50 (uM) as measured by SYBR green dye; assay type: functional, organism-based

SMILES	EC50 (Plasmodium falciparum [1])	EC50 (Plasmodium falciparum [2])
N#Cc1ccc(C(=O)N(Cc2cccnc2)c2nc3c(F)cccc3s2)cc1	> 15000 nM	> 15 µM
Clc1cccc(C2Nc3ccccc3-c3nc4ccccc4n32)c1 (stereo not given)	> 15000 nM	4.63 µM
CCCc1cc(O)nc(-n2nc(C)cc2NC(=O)c2cc(Cl)ccc2Cl)n1	> 15000 nM	> 15 µM
COc1ccc(Nc2cc(C)nc(N3CCN(C(=O)c4ccccc4C(F)(F)F)CC3)n2)cc1	3590 nM	1.57 µM
C[n+]1ccccc1/C=C/c1ccc(O)cc1	3180 nM	3.28 µM
CC(=O)c1cccc(CN2CCN(CC(C)C)C(CCO)C2)c1 (stereo not given)	> 15000 nM	> 15 µM
CCO/C(O)=C1\C(C)=NC2=C(C(=O)CC(c3ccc(OC)c(OC)c3)C2)C1c1cccc([N+](=O)[O-])c1 (stereo not given)	> 15000 nM	> 15 µM
CCOC(=O)C1=C(C)N=c2s/c(=C\c3ccc(O)cc3)c(=O)n2C1c1ccc(OC)c(OC)c1 (stereo not given)	> 15000 nM	1.4 µM
CC(=O)Nc1ccc(S(=O)(=O)Nc2ccc(Nc3nc(C)cc(N(C)C)n3)cc2)cc1	1950 nM	6.27 µM
COC(=O)c1ccc(Nc2nc(NCc3ccccc3)c3ccccc3n2)cc1	1110 nM	> 15 µM
CC(=O)N(C1=C(N(C)C)C(=O)c2ccccc2C1=O)c1cccc(I)c1	56.6 nM	0.0862 µM
O=[N+]([O-])c1cccc(-c2cn(-c3ccccc3)c3[n+]2CCCS3)c1	2280 nM	3.91 µM
CCOc1cc(C2CC(=O)NC3=C2C(=O)CC(c2ccc(OC)c(OC)c2)C3)ccc1O (stereo not given)	2320 nM	0.655 µM
Cc1ccc(N2C(=O)C(Cl)=C(Nc3ccccc3C)C2=O)c(C)c1	> 15000 nM	> 15 µM
CCCCn1c(N)c(C#N)c2nc3ccccc3nc21	1520 nM	6.01 µM
CCN(CC)CCNC(=O)CCc1nnc2n(Cc3ccc(Cl)cc3)c(=O)c3ccccc3n12	> 15000 nM	> 15 µM
O=C(Nc1cccc(C2=NCCN2)c1)Nc1cccc(C2=NCCN2)c1	1890 nM	0.23 µM
COc1cccc(NC(=O)C2c3ccccc3C(=O)N(C3CCCC3)C2c2cccs2)c1 (stereo not given)	450 nM	0.474 µM
CN1/C(=C/c2cccc[n+]2CCO)Sc2ccccc21	1790 nM	1.2 µM
Oc1c(C(Nc2ccccn2)c2ccc(Cl)cc2)ccc2cccnc12 (stereo not given)	2720 nM	4.11 µM
COc1ccc(C2C(C(=O)Nc3cnc4ccccc4c3)c3ccccc3C(=O)N2C2CCCCC2)cc1 (stereo not given)	1630 nM	3.37 µM
Cc1cc(Nc2ccc(C)c(F)c2)n2ncnc2n1	> 15000 nM	> 15 µM
COCCN1C(=O)c2ccccc2C(C(=O)Nc2ccc(OC)c(Cl)c2)C1c1cccs1 (stereo not given)	2010 nM	2.48 µM
COc1ccc(CNCCc2ccc(F)cc2)cc1C	> 15000 nM	> 15 µM

SMILES	EC50 (Plasmodium falciparum [1])	EC50 (Plasmodium falciparum [2])
O=C(C1CCCCC1)N(Cc1cccnc1)c1nc2c(Cl)cccc2s1	2360 nM	2.33 µM
Cc1ccc2c(c1)c(-c1ccccc1)c(-c1ccccc1)n2CC(O)CNCCc1ccccc1 (stereo not given)	1410 nM	0.602 µM
CCOc1cc(Br)c(C2NC(=O)NC(c3ccccc3)=C2C(C)=O)cc1OCC (stereo not given)	1510 nM	> 15 µM
CCCOc1ccc(/C=C/c2ccc3cccc(O)c3n2)cc1	> 15000 nM	> 15 µM
N#C/C(=C/c1ccc(O)c([N+](=O)[O-])c1)c1nc(-c2ccc(Cl)cc2)cs1	> 15000 nM	> 15 µM
COc1ccc2sc(N(Cc3cccnc3)C(=O)c3ccc(C#N)cc3)nc2c1	> 15000 nM	> 15 µM
O=C(CSc1ccc2nnc(-c3cccc(F)c3)n2n1)Nc1cccc(F)c1	> 15000 nM	1.08 µM
Oc1ccccc1/C=N\c1ccc(-c2nc3cc(-c4ccc5[nH]c(-c6ccc(/N=C\c7ccccc7O)cc6)nc5c4)ccc3[nH]2)cc1	207 nM	0.151 µM
CCC[N+]12CCC(CC1)C(C(=O)c1cccs1)C2 (stereo not given)	> 15000 nM	> 15 µM
Cc1ccc2c(c1)-c1c(cnn1CC(=O)Nc1cccc(C#N)c1)CO2	> 15000 nM	5.38 µM
CC(C)(CO)CN1CCC(C(=O)Nc2ccc(-c3nc4ccccc4[nH]3)cc2)CC1	6810 nM	> 15 µM
O=C(COc1ccccc1)NC(c1ccc(Cl)cc1)c1cc(Cl)c2cccnc2c1O (stereo not given)	1830 nM	1.68 µM
COc1ccc(CCNC(=S)Nc2cccc(Cl)c2)cc1OC	5390 nM	3.98 µM
Cc1cc(N2CCN(C)CC2)nc2ccc(NC(=S)NC3CCN(Cc4ccccc4)CC3)cc12	1200 nM	5.8 µM
COC(=O)Nc1ccc(S(=O)(=O)ON=C2C=C(C(C)(C)C)C(=O)C(C(C)(C)C)=C2)cc1	6840 nM	0.389 µM
CCc1c2cccn2cc[n+]1C	7070 nM	6.08 µM
COC(=O)c1cc(NS(=O)(=O)c2ccccc2[N+](=O)[O-])cc(C(=O)OC)c1	> 15000 nM	> 15 µM
COc1ccc(C2(O)C[N+](c3ccc(C)cc3)=C3SCCCN32)c(F)c1 (stereo not given)	> 15000 nM	> 15 µM
Cc1ccc(CN2CCN(c3nc4c(c(=O)[nH]c(=O)n4C)n3Cc3ccc(C)cc3)CC2)cc1	> 15000 nM	> 15 µM
Cc1ccc(Nc2nc(N)c3ccccc3n2)cc1Cl	> 15000 nM	> 15 µM
CC(C)(C)c1ccc2c(c1)CN(Cc1ccccc1)CO2	239 nM	0.0523 µM
O=C(c1ccco1)N(Cc1ccccc1)c1cccc([N+](=O)[O-])c1	> 15000 nM	> 15 µM
CCCCn1c(=N)n(CC(O)c2ccc(Cl)cc2)c2ccccc21 (stereo not given)	574 nM	0.544 µM
CCCCOC(=O)c1ccc(Nc2cc(C)nc3ccccc23)cc1	3400 nM	> 15 µM

SMILES	EC50 (Plasmodium falciparum [1])	EC50 (Plasmodium falciparum [2])
CCCN1CCN(CCCNC(=O)c2ccc3c(c2)sc2nc(-c4cccc(OC)c4)cn23)CC1	1210 nM	3.18 µM
CCOc1ccc(-c2nonc2NC(=O)C(C)C)cc1OCC	1390 nM	1.8 µM
CCOc1cccc(C2CC(=O)NC3=C2C(=O)CC(c2ccccc2Cl)C3)c1 (stereo not given)	3720 nM	3.11 µM
CCCCN1COc2c(c3c(C(C)=O)c(C)oc3c3ccccc23)C1	> 15000 nM	4.31 µM
O=C(Nc1cccc(C(F)(F)F)c1)c1cc(Cl)ccc1O	973 nM	1.2 µM
COc1ccc(Nc2cc(C)nc(Nc3ccc(NS(=O)(=O)c4ccc(C)cc4)cc3)n2)cc1	560 nM	> 15 µM
COc1ccc(/C=C/c2cc[n+](C)cc2)cc1	3400 nM	3.82 µM
Cc1ccc(C(=O)N2CCc3ccccc32)cc1Br	> 15000 nM	> 15 µM
CC(=O)C1=C(C)NC(SCC(=O)c2cccc([N+](=O)[O-])c2)=C(C#N)C1c1ccc(Cl)cc1 (stereo not given)	> 15000 nM	6.73 µM
CN1CCN(CCCNC(=O)c2ccc3c(c2)sc2nc(-c4ccccc4)cn23)CC1	4060 nM	9.15 µM
Cc1ccc(N(CC(=O)NCCSc2ccc(Cl)cc2)S(=O)(=O)c2ccc(F)cc2)cc1	> 15000 nM	> 15 µM
CCOc1ccc(-c2nonc2NC(=O)c2ccc(C)cc2)cc1OCC	> 15000 nM	> 15 µM
Cc1ccc(-c2cc(-c3cc(Cl)ccc3O)[nH]n2)cc1	5010 nM	2.92 µM
CCc1cc(Br)ccc1NC(=O)Nc1ccc([N+](=O)[O-])cc1	> 15000 nM	> 15 µM
CCCCOc1ccc(NC2=C(N3CCCCC3)C(=O)c3ccccc3C2=O)cc1	14.5 nM	0.0135 µM
O=C1CC(O)(C(F)(F)C(F)(F)F)Oc2ccccc21 (stereo not given)	2570 nM	2.48 µM
O=C(Nc1ccc(Cl)cc1)C1c2ccccc2C(=O)N(C2CCCC2)C1c1cccs1 (stereo not given)	556 nM	1.07 µM
COc1ccc(/C=C2\Oc3c(ccc(O)c3CN3CCCCC3)C2=O)cc1	1630 nM	0.846 µM
COc1ccc(Br)cc1C(Nc1ccccn1)c1cc(Cl)c2cccnc2c1O (stereo not given)	> 15000 nM	2.95 µM
Cc1ccc(NC2=NC(=O)CC(C(=O)Nc3ccc(C(C)C)cc3)S2)cc1C (stereo not given)	> 15000 nM	> 15 µM
CN(C)c1ccc(C2N(C)c3ccccc3N2C)cc1	4270 nM	4.44 µM
CCO/C(O)=C1\C(C)=NC2=C(C(=O)CC(c3ccc(Cl)cc3)C2)C1c1cc(F)ccc1F (stereo not given)	> 15000 nM	> 15 µM
